SMILES strings stand for the structures. pIC50: −log10 of the molar value. Where only a bound is given, the exact number is not on record here.

This test deals with NLRP3 inflammasome. Put plainly: IL-1β Secretion Assay (NLRP3-dependent IL-1β secretion in PMA-differentiated THP-1 cells, nigericin activation, HTRF). The class given is cell-based. To be noted: Homo sapiens, THP-1, THP-1 cells, 100 ng/mL PMA 24 h, compound 20 h, 2.5 μM Nigericin 3 h; read-out: IC50 IL-1β Inhibition. In outline: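 IL-1β release, quantified by HTRF after nigericin activation of the NLRP3 inflammasome, was the read-out. A logistic fit of percent inhibition gave IC50.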
Background: In TR-FRET formats the signal depends on donor and acceptor labels being close together.
For orientation: pIC50 means the negative decadic logarithm of the IC50, by convention in mol/L. `Oc1cc(Cl)cc(F)c1-c1nnc(NCC2CCCO2)n2cccc12` (centres unmarked) [Compound I-621]: the negative-log IC50 (pIC50) was 7.00 to 8.00.

With `OCCN1CCC[C@@H](Nc2nnc(-c3ccc(Br)cc3O)c3cncn23)C1` [Compound I-623], the negative logarithm of the IC50 (pIC50) was above 9.00.

Turning to `CN1CCC[C@@H](Nc2nnc(-c3ccc(C(F)(F)F)cc3OC(F)F)c3cncn23)C1` [Compound I-624], the pIC50 was 8.00 to 9.00.

For `CN1C[C@H](F)C[C@@H](Nc2nnc(-c3ccc(C(F)(F)F)cc3OC(F)F)c3cncn23)C1` [Compound I-625], the negative-log IC50 (pIC50) was 7.00 to 8.00.

On to `CCN1CCC[C@@H](Nc2nnc(-c3c(O)cc(C)cc3F)c3cncn23)C1` [Compound I-626], for which the pIC50 was above 9.00.

On to `C[C@]1(O)C[C@@H](Nc2nnc(-c3ccc(Br)cc3O)c3cncn23)C1` [Compound I-627], for which the negative-log IC50 (pIC50) is 8.00 to 9.00.

On to `CCN1CCC[C@@H](Nc2nnc(-c3ccc(Br)cc3O)c3cncn23)C1` [Compound I-628], for which the pIC50 was above 9.00.

On to `CCOc1cc(O)c(-c2nnc(N[C@H]3C[C@@](C)(O)C3)n3cccc23)c(F)c1` [Compound I-629], for which the pIC50 was 7.00 to 8.00.

On to `CCOc1cc(O)c(-c2nnc(N[C@@H]3CCCN(C)C3)n3cccc23)c(F)c1` [Compound I-630], for which the pIC50 is 8.00 to 9.00.

With `CCOc1cc(O)c(-c2nnc(N[C@@H]3C[C@@H](F)CN(C)C3)n3cccc23)c(F)c1` [Compound I-631], the negative-log IC50 (pIC50) is 7.00 to 8.00.

In the case of `CCN1CCC[C@@H](Nc2nnc(-c3ccc(OC)cc3O)c3ccnn23)C1` [Compound I-632], the pIC50 was 8.00 to 9.00.

Turning to `CCN1CCC[C@@H](Nc2nnc(-c3ccc(C)cc3O)c3ccnn23)C1` [Compound I-633], the pIC50 was 8.00 to 9.00.

`COc1ccc(-c2nnc(N[C@@H]3CCCN(C)C3)n3nccc23)c(O)c1` [Compound I-634, (R)-5-Methoxy-2-(7-((1-methylpiperidin-3-yl)amino)pyrazolo[1,5-d][1,2,4]triazin-4-yl)phenol]: the negative logarithm of the IC50 (pIC50) is 7.00 to 8.00.

Turning to `CCN1CCC[C@@H](Nc2nnc(-c3c(C)cc(C)cc3O)c3cccn23)C1` [Compound I-636], the pIC50 was above 9.00.
